Results as given in patent publication US8765765B2, “Metabolites of (thio) carbamoyl-cyclohexane derivatives” (Richter Gedeon Nyrt., priority 2007, dated 2014).

Tests used:
[1] = target: T1, rat recombinant D3 receptors (expressed in Sf9 cells) (Rattus norvegicus, UniProt P19020); test: D3 receptor binding, [3H]-spiperone; details: rat recombinant D3, [3H]-spiperone 0.85 nM; read-out: rD3 Ki
T1 construct: purchased Packard BioScience, BioSignal Packard Inc. 6110139; host or cells: Sf9 cells
Method: Binding assays were carried out on rat recombinant D3 receptors (expressed in Sf9 cells) according to the supplier instructions (Packard BioScience, BioSignal Packard Inc. Cat. No. 6110139, Technical Data Sheet) using [^3H]-spiperone (0.85 nM) as ligand and haloperidol (10 μM) for determination of non-specific binding.

[2] = target: T2, D2 receptor (rat brain striatal membrane preparation) (Rattus norvegicus, UniProt P61169); test: D2 receptor binding, [3H]-spiperone; details: rat brain striatal membranes, [3H]-spiperone 0.6 nM; read-out: rD2 Ki
T2 construct: on rat brain striatal membrane preparation; from tissue; host or cells: rat brain striatum membranes
Method: D2 receptor binding assay was carried out as described by Creese et al., European Journal of Pharmacology, 60, 55-66, 1979) on rat brain striatal membrane preparation using [^3H]-spiperone (0.6 nM) as ligand. The non-specific binding was determined in the presence of 1 μM (+)-butaclamol.

[3] = target: Alpha-1 receptor (rat brain cortical membrane preparation); test: Alpha-1 receptor binding, [3H]-prasosin; details: rat brain cortical membranes, [3H]-prasosin 0.5 nM
Method: 3. Alpha-1 Receptor Binding
Alpha-1 receptor binding study was performed according to the method described by Greengrass and Bremmer (European Journal of Pharmacology 55:323-326, 1979) on rat brain cortical membrane preparation using [^3H]-prasosin (0.5 nM) as ligand. The non-specific binding was determined in the presence of 10 μM phentolamine.

[4] = tested on: adrenergic receptor sites; details: background statement; cited from earlier work
[5] = target: 5-HT2C (Homo sapiens, UniProt P28335); details: background statement; cited from earlier work
[6] = target: histamine H1 (Homo sapiens, UniProt P35367); details: background statement; cited from earlier work
[7] = tested on: dopamine D3/D2 receptor; details: background statement; cited from earlier work

T1 sequence (P19020 whole entry): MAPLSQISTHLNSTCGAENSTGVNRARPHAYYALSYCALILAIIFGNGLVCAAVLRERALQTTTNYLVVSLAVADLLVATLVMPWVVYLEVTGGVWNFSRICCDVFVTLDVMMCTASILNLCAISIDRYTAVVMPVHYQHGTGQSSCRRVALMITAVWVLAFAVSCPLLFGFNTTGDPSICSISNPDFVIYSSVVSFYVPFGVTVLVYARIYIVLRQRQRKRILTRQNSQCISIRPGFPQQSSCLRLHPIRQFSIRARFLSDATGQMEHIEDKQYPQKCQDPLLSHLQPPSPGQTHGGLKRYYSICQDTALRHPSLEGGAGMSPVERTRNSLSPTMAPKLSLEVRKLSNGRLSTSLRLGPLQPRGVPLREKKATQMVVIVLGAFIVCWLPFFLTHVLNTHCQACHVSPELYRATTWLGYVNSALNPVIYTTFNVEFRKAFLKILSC
T2 sequence (P61169 whole entry): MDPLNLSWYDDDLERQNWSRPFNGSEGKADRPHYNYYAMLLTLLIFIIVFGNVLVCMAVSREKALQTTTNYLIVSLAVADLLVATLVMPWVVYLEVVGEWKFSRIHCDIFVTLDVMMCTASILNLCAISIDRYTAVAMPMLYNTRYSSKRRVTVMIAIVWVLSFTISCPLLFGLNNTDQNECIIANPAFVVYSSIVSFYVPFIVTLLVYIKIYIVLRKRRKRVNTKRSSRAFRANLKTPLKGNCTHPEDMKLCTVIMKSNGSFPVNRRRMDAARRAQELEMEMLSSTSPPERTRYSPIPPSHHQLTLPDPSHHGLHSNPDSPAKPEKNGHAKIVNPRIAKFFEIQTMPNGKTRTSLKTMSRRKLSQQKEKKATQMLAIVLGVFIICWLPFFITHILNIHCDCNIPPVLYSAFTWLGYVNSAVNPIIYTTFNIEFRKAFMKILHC
5-HT2C, sequence (P28335 33-458, species assumed): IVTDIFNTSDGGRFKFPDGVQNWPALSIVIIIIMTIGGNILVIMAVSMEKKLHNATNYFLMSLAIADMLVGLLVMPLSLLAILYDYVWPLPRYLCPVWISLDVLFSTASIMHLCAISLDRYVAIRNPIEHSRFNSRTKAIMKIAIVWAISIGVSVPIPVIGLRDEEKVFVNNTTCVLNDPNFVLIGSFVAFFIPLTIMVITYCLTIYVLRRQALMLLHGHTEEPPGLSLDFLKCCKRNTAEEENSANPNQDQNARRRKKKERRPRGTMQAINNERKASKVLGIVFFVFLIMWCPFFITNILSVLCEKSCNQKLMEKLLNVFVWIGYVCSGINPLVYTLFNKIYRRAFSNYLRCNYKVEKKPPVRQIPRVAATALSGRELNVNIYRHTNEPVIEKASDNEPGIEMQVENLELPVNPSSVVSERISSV
histamine H1, sequence (P35367 whole entry): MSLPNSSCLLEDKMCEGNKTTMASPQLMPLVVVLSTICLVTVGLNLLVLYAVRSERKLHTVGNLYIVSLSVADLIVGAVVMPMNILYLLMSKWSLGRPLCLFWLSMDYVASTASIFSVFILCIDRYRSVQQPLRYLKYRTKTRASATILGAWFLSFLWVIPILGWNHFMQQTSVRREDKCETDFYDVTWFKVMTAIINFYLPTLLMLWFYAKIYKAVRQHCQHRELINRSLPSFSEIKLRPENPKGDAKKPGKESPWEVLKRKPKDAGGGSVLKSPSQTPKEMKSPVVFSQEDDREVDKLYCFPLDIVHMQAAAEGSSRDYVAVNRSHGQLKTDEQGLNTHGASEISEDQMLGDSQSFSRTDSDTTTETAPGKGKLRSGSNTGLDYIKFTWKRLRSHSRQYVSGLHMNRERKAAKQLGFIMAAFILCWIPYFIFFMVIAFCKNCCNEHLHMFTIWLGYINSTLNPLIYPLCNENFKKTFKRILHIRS

Compound	Ki [1] [nM]	Ki [2] [nM]	Ki [3] [nM]	potency at adrenergic receptor sites [4]	potency at 5-HT2C receptor site [5]	potency at histamine H1 receptor site [6]	D3 receptor antagonism relative to D2 receptor antagonism [7]
NC(=O)N[C@H]1CC[C@H](CCN2CCN(c3ccc(O)c(Cl)c3Cl)CC2)CC1 [Compound A, Trans-1-{4-[2-[4-(2,3-dichloro-4-hydroxy-phenyl)-piperazin-1-yl]-ethyl]-cyclohexyl}-urea]	0.26	8.4	> 1000				
CNC(=O)N[C@H]1CC[C@H](CCN2CCN(c3ccc(O)c(Cl)c3Cl)CC2)CC1 [Compound B, Trans-1-{4-[2-[4-(2,3-dichloro-4-hydroxy-phenyl)-piperazin-1-yl]-ethyl]-cyclohexyl}-3-methyl-urea]	0.24	2.49	> 1000				
CN(C)C(=O)N[C@H]1CC[C@H](CCN2CCN(c3ccc(O)c(Cl)c3Cl)CC2)CC1 [Compound C, Trans-1-{4-[2-[4-(2,3-dichloro-4-hydroxy-phenyl)-piperazin-1-yl]-ethyl]-cyclohexyl}-3,3-dimethyl-urea]	0.37	80.5	> 1000				
CN(C)C(=O)N[C@H]1CC[C@H](CC[N+]2([O-])CCN(c3cccc(Cl)c3Cl)CC2)CC1 [Compound D, Trans-1-{4-[2-[4-(2,3-dichlorophenyl)-1-oxo-piperazin-1-yl]-ethyl]-cyclohexyl}-3,3-dimethyl-urea]	> 10	> 100	> 1000				
CN(C)C(=O)NC1CCC(CCN2CCN(c3cccc(Cl)c3Cl)CC2)CC1.Cl (stereo not drawn) [trans-4-{2-[4-(2,3-dichlorophenyl)-piperazin-1-yl]-ethyl}-N,N-dimethylcarbamoyl-cyclohexylamine hydrochloride]				low potency	low potency	low potency	about one order of magnitude greater
